# Data from US20210290784A1, “POSITRON EMISSION TOMOGRAPHY (PET) RADIOTRACERS FOR IMAGING MACROPHAGE COLONY-STIMULATING FACTOR 1 RECEPTOR (CSF1R) IN NEUROINFLAMMATION” (The Johns Hopkins University, priority 2018, published 2021).
# “Also recorded” adds a separate entry of the source.
# What was measured:
# CSF1R [1] = biological target: T1, CSF1R (Mus musculus, UniProt P09581); assay: Brain uptake in intracranial LPS (i.c.-LPS) mouse model of neuroinflammation; format: in vivo; design: from tissue; host or cells: brain of living CD-1, C57BL/6J, transgenic APP (AD model), EAE and CSF1R KO mice; settings: i.c.-LPS mice
# T1 sequence (P09581 20-977): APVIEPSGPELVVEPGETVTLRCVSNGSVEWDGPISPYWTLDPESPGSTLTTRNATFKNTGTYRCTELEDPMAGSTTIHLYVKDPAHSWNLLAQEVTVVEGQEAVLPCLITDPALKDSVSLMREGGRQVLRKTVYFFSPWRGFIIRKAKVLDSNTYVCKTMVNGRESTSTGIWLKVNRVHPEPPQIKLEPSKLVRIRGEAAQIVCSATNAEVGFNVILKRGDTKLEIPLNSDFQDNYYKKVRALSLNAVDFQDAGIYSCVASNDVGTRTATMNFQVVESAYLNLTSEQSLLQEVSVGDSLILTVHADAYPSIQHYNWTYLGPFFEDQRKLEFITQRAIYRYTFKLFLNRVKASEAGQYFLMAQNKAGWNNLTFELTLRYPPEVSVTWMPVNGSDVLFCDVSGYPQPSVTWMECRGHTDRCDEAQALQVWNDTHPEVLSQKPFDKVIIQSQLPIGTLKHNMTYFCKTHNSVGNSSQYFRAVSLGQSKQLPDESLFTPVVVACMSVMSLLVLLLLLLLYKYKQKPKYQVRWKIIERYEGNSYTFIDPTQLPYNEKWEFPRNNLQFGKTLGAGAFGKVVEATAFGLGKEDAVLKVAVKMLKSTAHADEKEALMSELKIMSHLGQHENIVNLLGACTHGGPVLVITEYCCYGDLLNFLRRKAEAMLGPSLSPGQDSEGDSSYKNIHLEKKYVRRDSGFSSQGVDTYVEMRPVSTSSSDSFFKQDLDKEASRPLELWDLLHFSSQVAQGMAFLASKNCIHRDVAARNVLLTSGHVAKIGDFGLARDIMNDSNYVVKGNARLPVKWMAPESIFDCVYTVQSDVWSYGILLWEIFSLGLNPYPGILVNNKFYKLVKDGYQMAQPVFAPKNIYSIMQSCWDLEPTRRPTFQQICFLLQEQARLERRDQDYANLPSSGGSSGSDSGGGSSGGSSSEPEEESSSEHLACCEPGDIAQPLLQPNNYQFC
# Procedure: (§1) Experiment 1, FIG. 1A. […] CD1 mice were anaesthetized with avertin (250 mg/kg, IP). Peri-procedural analgesia was provided with finadine (2.5 mg/kg, SC). The coordinates for intraparenchymal injection in the right forebrain were AP −0.5 mm′ DV −2.5 mm; and ML 1.0 right of midline. The holes were drilled perpendicularly to the previously exposed skull. Sterile phosphate buffered saline (PBS) (0.5 μL) or 5 μg lipopolysaccharide (LPS, 011:B4, Calbiochem, San Diego, Calif.) in 0.5 μL PBS was injected into the brain parenchyma using a 1 μL Hamilton syringe. After injection, the needle was kept in the brain for additional 3 min and slowly removed. The incision was sealed with dental cement. […] The whole brains were removed and dissected on ice. […] The outcome variables were calculated as % SUV.
# as §1, with “2,” for “1,”, “1B.” for “1A.”, “The” for “CD1”
# CSF1R [2] = biological target: T1, CSF1R; assay: Blocking study with unlabeled CPPC in control mice; format: in vivo; design: from tissue; host or cells: brain of living CD-1, C57BL/6J, transgenic APP (AD model), EAE and CSF1R KO mice
# Procedure: Mice (male CD1 or C57BL/6J) were killed by cervical dislocation at 45 min following i.v. injection of [^11C]CPPC. The blockers, CPPC (0.3, 0.6, 1.2, 3.0, 10, and 20 mg/kg), or CSF1R inhibitor, compound 8 (Illig C R, et al. (2008)) (2 mg/kg), were given i.p., 5 min before [^11C]CPPC, whereas baseline animals received vehicle. […] Regional brain uptake of [^11C]CPPC at baseline was compared with that with blocking.
# Animals were sacrificed by cervical dislocation at 45 min following injection of 5.1 MBq (0.14 mCi) [^11C]CPPC [specific radioactivity=511 GBq/μmol (13.8 Ci/μmol)] in 0.2 mL saline into a lateral tail vein. […] The percentage of standardized uptake value (% SUV) was calculated.
# Animals were sacrificed by cervical dislocation at 45 min following injection of 5.0 MBq (0.135 mCi) [^11C]CPPC [specific radioactivity=390 GBq/μmol (10.5 Ci/μmol)] in 0.2 mL saline into a lateral tail vein. […] The outcome variables for the cortex are presented without blood correction as % SUV (FIG. 11A) and with blood correction as SUVR (FIG. 11B).
# CSF1R [3] = assay: Baboon PET (baseline, LPS, LPS-plus-blocking)
structure (smiles),measurement,setting,value
"[11CH3]N1CCN(c2ccc(NC(=O)c3ccc(C#N)o3)c(N3CCCCC3)c2)CC1 [[^11C]CPPC, 5-cyano-N-(4-(4-[^11C]methylpiperazin-1-yl)-2-(piperidin-1-yl)phenyl)furan-2-carboxamide]",specific fraction of elevated binding vs. sham animals,CSF1R [1],~50%
same,"reduction of uptake by blocking with nonradiolabeled CPPC, low dose",CSF1R [1]; blocker 0.3 mg/kg IP,insignificant
same,"reduction of uptake by blocking with nonradiolabeled CPPC, higher doses",CSF1R [1]; blocker 0.6 or […] IP,significantly reduced
same,"blood corrected cortex SUVR, blocking vs baseline","CSF1R [2]; CD1 mice, unlabeled CPPC 0.6 and 3 mg/kg, P=0.05, n=3",significantly lower
same,"cortex % SUV, blocking vs baseline, without blood correction","CSF1R [2]; CD1 mice, unlabeled CPPC 0.6 and 3 mg/kg, P>0.05, n=3",No significant difference
same,"reduction of radioactivity (SUVR, blood-corrected) with blocking","CSF1R [2]; control CD1 mice, cortex, unlabeled CPPC 0.6 and 3 mg/kg IP, 45 min",20%
same,"% SUV brain uptake with blocking, low doses of unlabeled CPPC","CSF1R [2]; control CD1 mice, dose escalation, 0.6-3 mg/kg, 45 min, no blood correction",no reduction; also recorded: failed to show a significant reduction; also recorded: insignificant blockade
same,"% SUV brain uptake with blocking, high doses of unlabeled CPPC","CSF1R [2]; control CD1 mice, dose escalation, 10-20 mg/kg, 45 min, no blood correction",gradual trend toward increased uptake; also recorded: insignificant gradual increase of uptake
same,parametric VT,"CSF1R [3]; LPS-treated baboon (0.05 mg/kg i.v., 4 h before radiotracer)",35-52
same,"K1 value, LPS-treated vs baseline",CSF1R [3]; baboon,changed only slightly
same,"decrease of metabolite-corrected radioactivity in plasma, LPS-treated vs. baseline",CSF1R [3]; baboon,~50%
same,parametric VT,CSF1R [3]; baboon baseline,15-25
same,"peak SUV, brain","CSF1R [3]; baboon baseline, 20 min postinjection",2.5-4.0
same,increase of distribution volume (VT) values in all brain regions of LPS-treated animal,"CSF1R [3]; baboon, LPS 0.05 mg/kg i.v.",More than a twofold increase
same,VT in LPS-plus-blocking study,"CSF1R [3]; baboon, blocker CPPC 1 mg/kg s.c. 1.5 h before radiotracer",reduction to the baseline level; also recorded: return to the baseline level
